Source: patent US20120329721A1, “MEANS FOR PREVENTING AND TREATING CELLULAR DEATH AND THEIR BIOLOGICAL APPLICATIONS” (CHIESI FARMACEUTICI S.P.A., priority 2003, published 2012)
“Also recorded” adds a separate entry of the source. Read-outs that look alike come from different tables or passages of the source. Residues, ends and D or L forms follow the SMILES beside them. *: point of attachment. Cbz = O=C(OCc1ccccc1)*; d = 2'-deoxy (DNA); r = 2'-OH (RNA); CH2F = FC*

Experiments:
primary cortical neurons [1] = assay type: cell-based; conditions: for ΔΨm loss (drop) in SD-neurons: JC-1
[2] = system: neonatal ischemic brain injury in 7 day-old rats; conditions: cited from earlier work
[3] = molecular target: T1, human recombinant caspase-2 (Homo sapiens, UniProt P42575); assay: In vitro VDVAD-AMC cleavage by recombinant caspase-2; assay type: biochemical
T1 construct: purchased BIOMOL
T1 sequence (P42575 170-325 limits assumed): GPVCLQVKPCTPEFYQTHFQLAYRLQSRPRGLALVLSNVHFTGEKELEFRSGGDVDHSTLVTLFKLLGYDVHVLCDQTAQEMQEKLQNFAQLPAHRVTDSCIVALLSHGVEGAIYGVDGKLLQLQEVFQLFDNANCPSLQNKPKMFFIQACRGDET
T1 sequence (P42575 348-452 limits assumed): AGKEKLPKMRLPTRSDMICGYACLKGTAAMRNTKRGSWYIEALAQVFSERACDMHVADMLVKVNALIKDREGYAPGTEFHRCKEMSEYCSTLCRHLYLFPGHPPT
Experimental: Activity of human recombinant caspase-2 (BIOMOL QuantiZyme™ Assay System) was assessed in 100 μl assay buffer (50 mM HEPES, pH 7.4, 100 mM NaCl, 0.1% CHAPS, 10 mM DTT, 1 mM EDTA, 10% glycerol).

primary cortical neurons [4] = assay: Cortical neuron death induced by other stimuli (ionomycin, staurosporine, β-amyloid 25-35, MPTP, 3-NPA, SNP); assay type: cell-based, mouse
caspase-2 [5] = assay: In cellula caspase-2 like activity (FAM-VDVAD-FMK FLICA; Western blotting) in SD-neurons; assay type: cell-based, mouse
caspase-3 = assay: In cellula caspase-3 like activity (FAM-DEVD-FMK FLICA or anti-cleaved caspase-3 antibody) in SD-neurons; assay type: cell-based, mouse
Jurkat cells = assay: VP16-induced cell death of Jurkat cells, cytoprotection assay; assay type: cell-based, human
Bax = Bax translocation to mitochondria in SD-neurons (Δ21 antibody immunostaining, subcellular fractionation); assay type: cell-based, mouse
[6] = system: neonatal ischemic brain injury in 7 day-old rats; conditions: rat, in vivo, ip
cytochrome c = assay: Immunodetection of cytochrome c release in SD-neurons; assay type: cell-based, mouse
caspase-8 = assay: In cellula caspase-8 like activity (FAM-LETD-FMK FLICA) in SD-neurons; assay type: cell-based, mouse
caspase-9 = assay: In cellula caspase-9 like activity (FAM-LEHD-FMK FLICA) in SD-neurons; assay type: cell-based, mouse
Experimental: Neurons were incubated with 1/150 of the DMSO stock solution of the FLICA for 1 hr at 37° C. 7-AAD and Hoechst were added during the last 15 min. Then neurons were washed three times in washing buffer (CaspaTag™ Kit). […] Cleaved caspase-3 was evidenced in cellula by immunodetection using Phycoerythrin (PE)-conjugated polyclonal antibodies (Beckton Dickinson). Neurons were stained by 7-AAD, trypsinized and fixed in PBS containing 1% PFA and 20 μg/ml Actinomycin D (AD) for 20 min. […] After washings in PBS, PE-related fluorescence was analysed on the cytometer (Fl-2 channel). Z-val-Ala-Asp(OMe)-FMK (Z-VAD-FMK), Quinoline-Val-Asp (OMe)-CH2-O-Ph (Q-VD-OPH), Z-DEVD-FMK ([…], ICN) and Z-LEHD-FMK ([…], all purchased from ICN (Orsay, France), and 4-(2-Aminoethyl)benzenesulfonyl fluoride (AEBSF, Pefabloc SC, Roche, Meylan, France) were added at 100 μM at the initiation of serum deprivation. Sulforhodamine-DEVD-FMK, (CaspaTag™ Red Activity Kit) permitted to detect activated caspase-3 and FITC-Annexin V. Neurons were incubated with 1/900 of the DMSO stock solution of the FLICA, and 1× FITC-annexin V in 200 μl of annexin-buffer for 30 min at 37° C. Then neurons were washed three times in a buffer composed of 50% washing buffer and 50% annexin-buffer. […] For FM, FLICA was excited through the BP515-560 filter and its fluorescence was collected through the LP590 long pass emission filter.
Neurons were loaded with 1 μM JC-1 for 30 min at 37° C. […] JC-1 monomers were detected in the Fl-1 channel by FC. […] Activated caspase-2, -3, -8 and -9 were detected using specific FAM-conjugated peptides (called Fluorochrome Labeled Inhibitor of Caspase, FLICA: CaspaTag™ fluorescein Caspase Activity Kits, Q-Biogen, Illkirch, France; ApoFluor™ Caspase Detection Kits, ICN, Orsay, France): FAM-VDVAD-FMK, FAM-DEVD-FMK, FAM-LETD-FMK and FAM-LEHD-FMK, respectively. Neurons were incubated with FLICAs (1:150, CaspaTag™ or 1:500, ApoFluor™) for 1 hr at 37° C., then washed three times in washing buffer. […] Phosphatidylserine (PS) exposure to the outer leaflet of the plasma membrane was detected through the fixation of FITC conjugated-annexin V (Immunotech).

caspase-2 [7] = assay: Caspase-2 activation (FLICA) in VP16-treated Jurkat cells; assay type: cell-based, human; conditions: VP16 10 μM, 7 hrs; inhibitors 50 μM
murine caspase-2 = assay: Caspase-2 knock-down by siRNA in cortical neurons (RT-PCR, Western blotting, 10C6 immunostaining); assay type: cell-based, mouse; conditions: in situ antibody-based detection
Bax α = assay: Bax cleavage (p22 to p18) in SD-neurons by Western blotting; assay type: cell-based, mouse; conditions: 24 hr-SD, Western Blotting Δ21 antibody; VDVAD/QVDOPH 100 μM, ALLN/ALLM 25 μM, E64d 25-50 μM, lactacystin 1-10 μM, epoxomycin 10 μM
Experimental: Neurons were lysed at RT in 25 mM Tris-HCl pH 7.4, 25 mM NaCl, 5 mM EDTA, 1% Triton X-100 supplemented by complete protease inhibitors cocktail (Roche). Protein concentration was determined using the Bio-Rad protein assay kit. Proteins (30 μg for caspase-2; 10 μg for Bax) were separated on 12.5% polyacrylamide gels and transferred to PVDF membranes (Amersham). […] The monoclonal anti-mouse caspase-2antibody (11B4, Alexis Biochemicals) was used at a 1:1000 dilution; polyclonal antibody (Δ21, Santa Cruz Biotechnology) raised against mouse Bax α deleted for the carboxy terminal 21 amino acids was used at a 1:200 dilution; polyclonal antibody (N20, Santa Cruz Biotechnology) raised against the amino terminus of Bax α (recognizing residues 11 to 30) was used at a 1:1000 dilution. Actin (42 kDa; Sigma; 1:5000) is used as an equal loading control. Immunoblotting of heat-shock protein 60 (HSP60) with a mouse monoclonal anti-HSP (Sigma; 1:400) was used to check the purity of the heavy membrane fraction enriched in mitochondria.

VDVAD-AMC = molecular target: T2, VDVAD-AMC
T2 chain: VDVAD

[8] = inhibitor 2 μM, 50 μM VDVAD-AMC, caspase-2 125 U, 30 min at 37° C.
[9] = 24 hr-SD, inhibitors 100 μM (BA 25 μM)
[10] = 24 hr-SD, inhibitors 100 μM (BA 25 μM), listed as LEHD
[11] = 24 hr-SD, inhibitors 100 μM (BA 25 μM), listed as z-LEHD-fmk

## COC(=O)CC(NC(=O)OC(C)(C)C)C(=O)CF [BOC-D-FMK, BOC-Asp(OMe)-fluoromethylketone]
Primary cortical neurons [1]
  survival / protection of SD-neurons against cell death (apoptosis hallmarks overall): neither Z-VAD-FMK nor BOC-D-FMK (BOC-D) is able to delay or to abrogate; also recorded: inefficient
Primary cortical neurons [1]; SD model, compound added at the start of SD at the concentration of column '[ ], μM' (first concentration/target where two are printed)
  Survival: No
[2]; Renolleau's model
  animals with aggravation: 60%
[2]; previous results obtained in this model
  reduction in infarct volume (previous results in this model): did not induce such a significant reduction in infarct volume
[3]; [8]
  inhibition of VDVAD-AMC cleavage by recombinant caspase-2: completely inactive

## COC(=O)CC(NC(=O)C(NC(=O)c1ccc2ccccc2n1)C(C)C)C(=O)COc1ccccc1 (stereo not shown) [Q-VD-OPH, Quinoline-Val-Asp (OMe)-CH2-O-Ph]
Primary cortical neurons [4]
  cell death induced by staurosporine or ionomycin: is not prevented
  protection from NA and PMP induced by β-amyloid (25-35), MPTP, 3-NPA, SNP or ionomycin: fails to provide protection, except for β-amyloid; also recorded: fail to prevent significantly
Primary cortical neurons [1]
  Survival: Yes
  concentration required for optimal survival / higher protective effect: 100 µM
  degradation phase of apoptosis: PS exposure, nuclear apoptosis (NA), PMP in SD-neurons: strongly prevent; also recorded: fully blocked
  inhibition of PMP (7-AAD) induced by serum deprivation: 93.9+/−3.8%
  survival / protection of SD-neurons against cell death (apoptosis hallmarks overall): mostly rescued; also recorded: highly preserves both nuclear morphology and neurites integrity
caspase-2 [5]
  caspase-2 like activity / activation in SD-neurons: completely inactivated; also recorded: abolish caspase-2 activation
caspase-3
  caspase-3 like activity / activation in SD-neurons: strongly prevent; also recorded: completely inactivated; also recorded: prevent downstream cytochrome c release-dependent activation
caspase-3; 100 µM
  inhibition of caspase-3 like activity induced by serum deprivation: 95.3 +/- 5.6%
Jurkat cells
  cell death induced by VP16 (survival): prevents cell death
  terminal nuclear alterations and PMP in VP16-treated Jurkat cells: mostly prevent
[3]
  inhibition of VDVAD-AMC cleavage by recombinant caspase-2: blocked
Bax
  Bax translocation (relocation) to mitochondria in SD-neurons: impair Bax translocation to mitochondria; also recorded: prevented
[6]
  animals that exhibited no infarct: 4
  infarct volume (% damage in the lesioned ipsilateral hemisphere): 12.4±2.6%
  mortality rate during ischemia or before killing: < 4%
  reduction in infarct volume: 44%
Cytochrome c
  cytochrome c release from mitochondria in SD-neurons: efficiently blocked
caspase-8
  caspase-8 like activity in SD-neurons: completely inactivated
caspase-9
  caspase-9 like activity / activation in SD-neurons: completely inactivated; also recorded: prevent downstream cytochrome c release-dependent activation

## COC(=O)CCC(NC(=O)C(CC(C)C)NC(=O)OCc1ccccc1)C(=O)NC(Cc1cnc[nH]1)C(=O)NC(CC(=O)OC)C(=O)CF (stereo not shown) [Z-LEHD-FMK, N-benzyloxycarbonyl-Leu-Glu(Ome)-His-Asp(OMe)-fluoromethylketone] (Cbz-LE(OMe)HD(OMe)-CH2F; configuration not given here)
Primary cortical neurons [1]; [9]
  ΔΨm loss (drop) in SD-neurons: does not impair; also recorded: does not impaired ΔΨm drop
  degradation phase of apoptosis: PS exposure, nuclear apoptosis (NA), PMP in SD-neurons: delays and prevents apoptotic bodies formation but not stage I-condensation; also recorded: prevents
Primary cortical neurons [1]; [10]
  ΔΨm loss (drop) in SD-neurons: does not impair ΔΨm drop
  degradation phase of apoptosis: PS exposure, nuclear apoptosis (NA), PMP in SD-neurons: preventing PS exposure, NA and PMP
Primary cortical neurons [1]; [11]
  degradation phase of apoptosis: PS exposure, nuclear apoptosis (NA), PMP in SD-neurons: abolishes PS exposure and PMP
Jurkat cells; VP16 10 μM, 7-8 hrs, inhibitors 50 μM
  ΔΨm loss in VP16-treated Jurkat cells: not abolished
[3]; [8]
  inhibition of VDVAD-AMC cleavage by recombinant caspase-2: did not interfere highly; also recorded: not strongly inactivated
Bax; 24 hr-SD, inhibitors 100 μM (furosemide 2 mM)
  Bax translocation (relocation) to mitochondria in SD-neurons: does not prevent mitochondrial Bax relocation
Bax; 24 hr-SD, inhibitors 100 μM (furosemide 2 mM), listed as LEHD
  Bax translocation (relocation) to mitochondria in SD-neurons: fail to impair Bax relocation
Cytochrome c; 24 hr-SD, inhibitors 100 μM
  cytochrome c release from mitochondria in SD-neurons: could not prevent cytochrome c release
Cytochrome c; 24 hr-SD, inhibitors 100 μM, listed as LEHD
  cytochrome c release from mitochondria in SD-neurons: fail to impair cytochrome c release
caspase-2 [7]
  caspase-2 activation in VP16-treated Jurkat cells: do not impair caspase-2 activation
caspase-9; [9]
  caspase-9 like activity / activation in SD-neurons: prevents caspase-9 activation
caspase-9; [11]
  caspase-9 like activity / activation in SD-neurons: abolition of caspase-9 like activity

## siRNA C2 m: irrelevant control siRNA with 4 mutations, duplex of SEQ ID No 3 and SEQ ID No 4 (chain 1 CAUCUACUCGAGACGGACATT; chain 2 UGUCCGUCUCGAGUAGAUGTT; sugars from the 5' end r19 d2, backbone not given here)
Murine caspase-2
  caspase-2 expression (gene silencing / knock-down): prevents neither gene/protein expression
Bax α
  Bax cleavage (p18 Bax) in SD-neurons: has no effect

B1: human recombinant caspase-2 (BIOMOL QuantiZyme Assay System) (protein)
chain: GPVCLQVKPCTPEFYQTHFQLAYRLQSRPRGLALVLSNVHFTGEKELEFRSGGDVDHSTLVTLFKLLGYDVHVLCDQTAQEMQEKLQNFAQLPAHRVTDSCIVALLSHGVEGAIYGVDGKLLQLQEVFQLFDNANCPSLQNKPKMFFIQACRGDETDRGVDQQDGKNHAGSPGCEESDAGKEKLPKMRLPTRSDMICGYACLKGTAAMRNTKRGSWYIEALAQVFSERACDMHVADMLVKVNALIKDREGYAPGTEFHRCKEMSEYCSTLCRHLYLFPGHPPT
VDVAD-AMC
  cleavage of VDVAD-AMC (fluorescence emission at 510 nm upon excitation at 405 nm): The cleavage of 50 µM VDVAD-AMC by recombinant caspase-2 (125 U) was measured after 30 min at 37 °C
